Assay results taken from publication PMC11702208 (RSC Advances, 2025).
Several values for one entry are separate records, joined by “and”; a condition that tells them apart may be missing. Identical values can stand only once.

What was measured:
EKVX = assay: NCI cytotoxicity screen; format: cell-based, human; conditions: 10.0 μM one dose
NCI-H322M = assay: NCI cytotoxicity screen; format: cell-based, human; conditions: 10.0 μM one dose
SF-268 = assay: NCI cytotoxicity screen; format: cell-based, human; conditions: 10.0 μM one dose
U251 = assay: NCI cytotoxicity screen; format: cell-based, human; conditions: 10.0 μM one dose; U-251
CAKI-1 = assay: NCI cytotoxicity screen; format: cell-based, human; conditions: 10.0 μM one dose
UO-31 = assay: NCI cytotoxicity screen; format: cell-based, human; conditions: 10.0 μM one dose
HOP-92 = assay: NCI cytotoxicity screen; format: cell-based, human; conditions: 10.0 μM one dose
SNB-75 = assay: NCI cytotoxicity screen; format: cell-based, human; conditions: 10.0 μM one dose
NCI-H522 = assay: NCI cytotoxicity screen; format: cell-based, human; conditions: 10.0 μM one dose
UACC-62 = assay: NCI cytotoxicity screen; format: cell-based, human; conditions: 10.0 μM one dose
MCF7 = assay: NCI cytotoxicity screen; format: cell-based, human; conditions: 10.0 μM one dose; MCF-7
MDA-MB-231/ATCC = assay: NCI cytotoxicity screen; format: cell-based, human; conditions: 10.0 μM one dose; MDA-MB-231/ATCC
HS 578T = assay: NCI cytotoxicity screen; format: cell-based, human; conditions: 10.0 μM one dose; HS-578T
59 cancer cell lines = assay: NCI cytotoxicity screen, full panel; format: cell-based, human; conditions: 10.0 μM one dose; 59 cell lines
COX-2 = target: T1, COX-2 (Ovis aries, UniProt P79208); assay: Colorimetric COX; format: biochemical, ovine
T1 sequence (P79208 17-603): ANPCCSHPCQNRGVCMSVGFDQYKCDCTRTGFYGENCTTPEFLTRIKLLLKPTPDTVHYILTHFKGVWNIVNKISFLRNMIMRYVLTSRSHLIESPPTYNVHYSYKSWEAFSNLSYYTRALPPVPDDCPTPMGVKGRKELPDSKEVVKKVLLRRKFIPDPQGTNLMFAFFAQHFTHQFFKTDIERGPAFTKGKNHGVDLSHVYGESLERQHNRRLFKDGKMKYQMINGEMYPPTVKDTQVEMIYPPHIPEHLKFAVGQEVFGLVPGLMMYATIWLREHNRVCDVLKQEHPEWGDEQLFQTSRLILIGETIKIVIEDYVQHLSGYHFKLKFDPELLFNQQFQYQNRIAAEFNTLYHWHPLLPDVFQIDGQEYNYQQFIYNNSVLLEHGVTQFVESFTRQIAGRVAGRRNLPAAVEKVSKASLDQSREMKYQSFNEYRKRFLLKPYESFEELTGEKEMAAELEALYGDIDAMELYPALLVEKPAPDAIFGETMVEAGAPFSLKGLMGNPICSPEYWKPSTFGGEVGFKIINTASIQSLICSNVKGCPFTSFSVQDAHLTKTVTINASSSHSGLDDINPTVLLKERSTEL

EGFR = EGFR (Homo sapiens, UniProt P00533); assay: biochemical; conditions: IC50 EGFR inhibition
HER2 = HER2 (Homo sapiens, UniProt P04626); assay: HER2 tyrosine kinase assay; format: biochemical; conditions: IC50 HER2 inhibition
CDK9 = CDK9 (Homo sapiens, UniProt P50750); assay: biochemical; conditions: IC50 CDK9 inhibition
RPMI-8226 = assay: NCI cytotoxicity screen; format: cell-based, human; conditions: 10.0 μM one dose
NCI-H226 = assay: NCI cytotoxicity screen; format: cell-based, human; conditions: 10.0 μM one dose
SF-539 = assay: NCI cytotoxicity screen; format: cell-based, human; conditions: 10.0 μM one dose
RXF 393 = assay: NCI cytotoxicity screen; format: cell-based, human; conditions: 10.0 μM one dose
SN12C = assay: NCI cytotoxicity screen; format: cell-based, human; conditions: 10.0 μM one dose; SN-12C
MDA-MB-468 = assay: NCI cytotoxicity screen; format: cell-based, human; conditions: 10.0 μM one dose
HCT-116 = assay: NCI cytotoxicity screen; format: cell-based, human; conditions: 10.0 μM one dose
SNB-19 = assay: NCI cytotoxicity screen; format: cell-based, human; conditions: 10.0 μM one dose
SK-MEL-5 = assay: NCI cytotoxicity screen; format: cell-based, human; conditions: 10.0 μM one dose
OVCAR-5 = assay: NCI cytotoxicity screen; format: cell-based, human; conditions: 10.0 μM one dose; OVCAR-5
T-47D = assay: NCI cytotoxicity screen; format: cell-based, human; conditions: 10.0 μM one dose; T-47D
SR = assay: NCI cytotoxicity screen; format: cell-based, human; conditions: 10.0 μM one dose
NCI-H23 = assay: NCI cytotoxicity screen; format: cell-based, human; conditions: 10.0 μM one dose
KM12 = assay: NCI cytotoxicity screen; format: cell-based, human; conditions: 10.0 μM one dose; KM-12
LOX IMVI = assay: NCI cytotoxicity screen; format: cell-based, human; conditions: 10.0 μM one dose
MALME-3M = assay: NCI cytotoxicity screen; format: cell-based, human; conditions: 10.0 μM one dose; MALME-3M
M14 = assay: NCI cytotoxicity screen; format: cell-based, human; conditions: 10.0 μM one dose
MDA-MB-435 = assay: NCI cytotoxicity screen; format: cell-based, human; conditions: 10.0 μM one dose
786-0 = assay: NCI cytotoxicity screen; format: cell-based, human; conditions: 10.0 μM one dose
BT-549 = assay: NCI cytotoxicity screen; format: cell-based, human; conditions: 10.0 μM one dose

Chain of HER2 (P04626 23-1255): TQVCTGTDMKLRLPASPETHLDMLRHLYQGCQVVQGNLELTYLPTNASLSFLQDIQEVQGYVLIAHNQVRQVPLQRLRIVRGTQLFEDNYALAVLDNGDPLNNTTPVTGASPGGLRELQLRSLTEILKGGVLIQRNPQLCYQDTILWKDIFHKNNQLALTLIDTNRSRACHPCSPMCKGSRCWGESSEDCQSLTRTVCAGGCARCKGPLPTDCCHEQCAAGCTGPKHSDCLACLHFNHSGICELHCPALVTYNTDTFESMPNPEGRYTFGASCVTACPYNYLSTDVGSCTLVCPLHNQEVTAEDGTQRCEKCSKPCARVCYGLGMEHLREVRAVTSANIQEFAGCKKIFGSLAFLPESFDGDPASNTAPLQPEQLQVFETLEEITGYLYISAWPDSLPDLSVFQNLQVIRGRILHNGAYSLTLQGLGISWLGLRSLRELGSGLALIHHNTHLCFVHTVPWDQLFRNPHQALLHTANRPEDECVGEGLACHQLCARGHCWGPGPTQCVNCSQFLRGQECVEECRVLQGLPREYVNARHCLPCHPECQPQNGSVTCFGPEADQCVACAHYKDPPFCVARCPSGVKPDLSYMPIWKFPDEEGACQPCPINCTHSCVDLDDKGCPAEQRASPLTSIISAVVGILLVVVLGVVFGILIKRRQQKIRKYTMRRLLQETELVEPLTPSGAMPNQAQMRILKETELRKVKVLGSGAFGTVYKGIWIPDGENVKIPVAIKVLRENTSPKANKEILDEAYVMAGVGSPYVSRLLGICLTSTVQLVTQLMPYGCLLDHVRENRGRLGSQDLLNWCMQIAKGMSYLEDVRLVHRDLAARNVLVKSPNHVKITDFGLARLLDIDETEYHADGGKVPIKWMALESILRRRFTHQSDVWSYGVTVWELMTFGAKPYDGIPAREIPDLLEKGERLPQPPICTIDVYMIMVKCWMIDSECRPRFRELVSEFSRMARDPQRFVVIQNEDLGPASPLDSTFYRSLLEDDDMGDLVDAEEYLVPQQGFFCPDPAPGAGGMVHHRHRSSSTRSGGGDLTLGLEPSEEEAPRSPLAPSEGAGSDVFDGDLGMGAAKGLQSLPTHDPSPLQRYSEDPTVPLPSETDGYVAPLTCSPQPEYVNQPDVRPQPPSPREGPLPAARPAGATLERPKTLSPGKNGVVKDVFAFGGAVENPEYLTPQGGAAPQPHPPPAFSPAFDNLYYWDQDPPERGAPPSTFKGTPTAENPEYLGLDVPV
Chain of CDK9 (P50750 whole entry): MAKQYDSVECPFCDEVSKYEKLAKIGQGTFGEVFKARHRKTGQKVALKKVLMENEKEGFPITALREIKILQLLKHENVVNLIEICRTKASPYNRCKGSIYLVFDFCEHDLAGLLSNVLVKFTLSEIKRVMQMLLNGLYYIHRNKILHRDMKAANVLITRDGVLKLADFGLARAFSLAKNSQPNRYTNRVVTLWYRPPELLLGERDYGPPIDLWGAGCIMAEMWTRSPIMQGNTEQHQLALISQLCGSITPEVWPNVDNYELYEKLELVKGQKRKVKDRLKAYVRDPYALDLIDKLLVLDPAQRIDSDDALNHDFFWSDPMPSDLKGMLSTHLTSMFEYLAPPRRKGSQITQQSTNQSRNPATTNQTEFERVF
Chain of CDK9 (O60563 whole entry partner): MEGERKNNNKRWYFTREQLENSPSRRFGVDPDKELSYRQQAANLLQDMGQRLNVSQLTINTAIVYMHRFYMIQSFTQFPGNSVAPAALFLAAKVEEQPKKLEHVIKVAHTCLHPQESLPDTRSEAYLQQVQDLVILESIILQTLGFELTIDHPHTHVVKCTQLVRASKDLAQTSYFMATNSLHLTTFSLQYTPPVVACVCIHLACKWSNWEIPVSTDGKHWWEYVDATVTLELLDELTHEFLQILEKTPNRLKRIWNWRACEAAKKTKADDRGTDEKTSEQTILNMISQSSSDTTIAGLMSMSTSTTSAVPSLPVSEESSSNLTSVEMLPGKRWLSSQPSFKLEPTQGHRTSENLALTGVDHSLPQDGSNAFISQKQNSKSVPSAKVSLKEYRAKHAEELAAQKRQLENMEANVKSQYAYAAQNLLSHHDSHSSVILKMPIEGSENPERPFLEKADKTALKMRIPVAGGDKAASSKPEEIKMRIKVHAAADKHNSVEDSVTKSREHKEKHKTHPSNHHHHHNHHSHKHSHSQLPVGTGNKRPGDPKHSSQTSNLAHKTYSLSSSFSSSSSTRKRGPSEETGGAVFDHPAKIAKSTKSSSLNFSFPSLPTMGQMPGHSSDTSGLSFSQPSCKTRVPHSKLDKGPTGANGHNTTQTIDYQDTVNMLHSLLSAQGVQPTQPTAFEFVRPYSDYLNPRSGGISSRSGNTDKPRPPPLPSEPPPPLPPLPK
Chain of EGFR (P00533 25-1210): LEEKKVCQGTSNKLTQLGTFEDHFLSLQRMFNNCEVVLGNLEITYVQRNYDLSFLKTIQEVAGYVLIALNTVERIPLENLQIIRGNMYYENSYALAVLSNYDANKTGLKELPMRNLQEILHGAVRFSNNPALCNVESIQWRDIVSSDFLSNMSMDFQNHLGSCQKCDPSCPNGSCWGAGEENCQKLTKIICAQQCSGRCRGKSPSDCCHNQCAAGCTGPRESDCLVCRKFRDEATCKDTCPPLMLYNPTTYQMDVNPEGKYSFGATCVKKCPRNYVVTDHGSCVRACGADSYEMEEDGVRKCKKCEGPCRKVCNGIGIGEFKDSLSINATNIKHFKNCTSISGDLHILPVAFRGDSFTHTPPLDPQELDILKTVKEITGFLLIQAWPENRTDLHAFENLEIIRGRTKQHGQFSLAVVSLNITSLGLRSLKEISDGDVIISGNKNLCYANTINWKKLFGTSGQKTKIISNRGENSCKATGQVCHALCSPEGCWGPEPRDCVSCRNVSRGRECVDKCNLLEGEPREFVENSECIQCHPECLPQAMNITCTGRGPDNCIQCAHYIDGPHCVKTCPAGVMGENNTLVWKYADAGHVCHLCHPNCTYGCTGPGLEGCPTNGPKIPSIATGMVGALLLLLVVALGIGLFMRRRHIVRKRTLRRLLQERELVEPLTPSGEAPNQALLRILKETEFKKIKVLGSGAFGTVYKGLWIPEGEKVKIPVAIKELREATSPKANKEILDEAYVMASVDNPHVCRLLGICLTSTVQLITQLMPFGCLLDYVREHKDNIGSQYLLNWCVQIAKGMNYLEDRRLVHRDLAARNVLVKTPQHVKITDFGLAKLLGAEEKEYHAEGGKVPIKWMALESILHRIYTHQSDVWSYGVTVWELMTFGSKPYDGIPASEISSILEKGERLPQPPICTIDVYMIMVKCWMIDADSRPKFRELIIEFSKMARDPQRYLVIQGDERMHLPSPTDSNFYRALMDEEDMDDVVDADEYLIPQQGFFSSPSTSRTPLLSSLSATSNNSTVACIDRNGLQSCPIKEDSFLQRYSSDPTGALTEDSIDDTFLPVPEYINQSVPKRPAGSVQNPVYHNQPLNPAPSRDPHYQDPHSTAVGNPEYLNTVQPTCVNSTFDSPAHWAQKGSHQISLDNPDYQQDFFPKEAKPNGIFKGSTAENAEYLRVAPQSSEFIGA

Compound	GI % (EKVX) [%]	GI % (SF-268) [%]	GI % (U251) [%]	GI % (CAKI-1) [%]	GI % (UO-31) [%]	GI % (SNB-75) [%]	GI % (NCI-H522) [%]	GI % (MCF7) [%]	GI % (MDA-MB-231/ATCC) [%]	GI % (HS 578T) [%]	MG% (mean growth percent) (59 cancer cell lines)	GI % (SF-539) [%]	GI % (RXF 393) [%]	GI % (MDA-MB-468) [%]	GI % (T-47D) [%]	other results
4-((4-Oxo-2-((2-oxo-2-(2-(1-(p-tolyl)ethylidene)hydrazineyl)ethyl)thio)quinazolin-3(4H)-yl)methyl)benzenesulfonamide [Compound 10]	10	14	15	16	20	–	–	–	–	–	–	–	–	–	–	GI % (NCI-H322M): 14%
NS(=O)(=O)c1ccc(Cn2c(=S)[nH]c3ccccc3c2=O)cc1 [Compound 1, 4-((4-Oxo-2-thioxo-1,4-dihydroquinazolin-3(2H)-yl)methyl)benzenesulfonamide]	–	–	–	11	19	23	–	–	–	–	–	–	–	–	–	GI % (HOP-92): 14%
CCOC(=O)CSc1nc2ccccc2c(=O)n1Cc1ccc(S(N)(=O)=O)cc1 [Compound 2, Ethyl 2-((4-oxo-3-(4-sulfamoylbenzyl)-3,4-dihydroquinazolin-2-yl)thio)acetate]	–	–	–	–	16	15	–	–	–	–	–	–	–	–	–	–
NS(=O)(=O)c1ccc(Cn2c(SCC(=O)NN=Cc3ccccc3)nc3ccccc3c2=O)cc1 [Compound 4, 4-((2-((2-(2-Benzylidenehydrazineyl)-2-oxoethyl)thio)-4-oxoquinazolin-3(4H)-yl)methyl)benzenesulfonamide]	14	–	–	16	21	13	18	14	12	11	–	–	–	–	–	GI % (UACC-62): 11%
COc1cccc(C=NNC(=O)CSc2nc3ccccc3c(=O)n2Cc2ccc(S(N)(=O)=O)cc2)c1 [Compound 7, 4-((2-((2-(2-(3-Methoxybenzylidene)hydrazineyl)-2-oxoethyl)thio)-4-oxoquinazolin-3(4H)-yl)methyl)benzenesulfonamide]	–	–	–	–	–	–	–	–	–	–	89.4% and 89.35%	–	–	–	–	IC50 (COX-2): 50500 ± 1060 nM; IC50 (EGFR): 594 ± 14.5 nM; IC50 (HER2): 387 nM; IC50 (CDK9): 155 ± 3.81 nM
COc1cc(C=NNC(=O)CSc2nc3ccccc3c(=O)n2Cc2ccc(S(N)(=O)=O)cc2)cc(OC)c1OC [Compound 8, 4-((4-Oxo-2-((2-oxo-2-(2-(3,4,5-trimethoxybenzylidene)hydrazineyl)ethyl)thio)quinazolin-3(4H)-yl)methyl)benzenesulfonamide]	15	15	–	14	25	–	48	11	15	15	96.8% and 96.77%	12	10	19	–	GI % (RPMI-8226): 13%; GI % (NCI-H226): 11%; GI % (NCI-H322M): 15%; GI % (SN12C): 10%
COc1cccc(C(C)=NNC(=O)CSc2nc3ccccc3c(=O)n2Cc2ccc(S(N)(=O)=O)cc2)c1 [Compound 11, 4-((2-((2-(2-(1-(3-Methoxyphenyl)ethylidene)hydrazineyl)-2-oxoethyl)thio)-4-oxoquinazolin-3(4H)-yl)methyl)benzenesulfonamide]	–	25	20	21	21	22	52	10	25	19	94.5% and 94.54%	28	16	19	11	GI % (HCT-116): 20%; GI % (SNB-19): 15%; GI % (SK-MEL-5): 10%; GI % (OVCAR-5): 12%
COc1cc(OC)cc(C(C)=NNC(=O)CSc2nc3ccccc3c(=O)n2Cc2ccc(S(N)(=O)=O)cc2)c1 [Compound 12, 4-((2-((2-(2-(1-(3,5-Dimethoxyphenyl)ethylidene)hydrazineyl)-2-oxoethyl)thio)-4-oxoquinazolin-3(4H)-yl)methyl)benzenesulfonamide]	–	64	26	16	–	39	62	–	28	11	88.4%	64	30	27	62	GI % (SR): 28%; GI % (NCI-H23): 17%; GI % (HCT-116): 17%; GI % (KM12): 30%; GI % (SNB-19): 49%; GI % (LOX IMVI): 20%; GI % (MALME-3M): 30%; GI % (M14): 11%; GI % (MDA-MB-435): 30%; GI % (SK-MEL-5): 32%; GI % (UACC-62): 17%; GI % (OVCAR-5): 14%; GI % (786-0): 15%; GI % (BT-549): 57%; IC50 (COX-2): 21300 ± 440 nM; IC50 (EGFR): 492 ± 12.1 nM; IC50 (HER2): 111 nM; IC50 (CDK9): 320 ± 7.85 nM
COc1cc(C(C)=NNC(=O)CSc2nc3ccccc3c(=O)n2Cc2ccc(S(N)(=O)=O)cc2)cc(OC)c1OC [Compound 13, 4-((4-Oxo-2-((2-oxo-2-(2-(1-(3,4,5-trimethoxyphenyl)ethylidene)hydrazineyl)ethyl)thio)quinazolin-3(4H)-yl)methyl)benzenesulfonamide]	–	–	–	15	24	13	–	11	11	–	97.44%	–	–	16	15	GI % (SR): 12%
